Laboratory results published in US20050272040A1, “Method for increasing synaptic growth or plasticity” (priority 2002, published 2005).

How the values were obtained:
hippocampal cells = assay: Real-time RT-PCR of genes induced by neurotrophin treatment of hippocampal cultures; type: cell-based, rat; design: key to NGF effect on Fra2 transcription / NGF effect on CyclinD1 transcription / NGF effect on c-fos transcription / NGF effect on Kv + 1.1 transcription / NGF effect on Na + ch transcription / NGF effect on SgII transcription / NGF effect on SSTR4 transcription / NGF effect on UNC5H2 transcription / NGF effect on NPY transcription / NGF effect on VGF transcription / NGF effect on EGR1 transcription / NGF effect on PTP1B transcription / NGF effect on Arc transcription: UC = unchanged; DOWN: down = decreased
Procedure: The molecular genetics underlying BDNF-evoked plasticity were examined by expression profiling using cDNA microarrays on a population of hippocampal cells in vitro. Synaptic effects of BDNF are observed within 20 minutes of exposure (Levine et al. (1996) supra; Lessmann and Heumann (1998) supra; Schinder et al. (2000) supra). A 3-hour BDNF treatment has been used to identify several genes with roles in synaptic plasticity (Thakker-Varia et al. (2001) supra). Consequently, to reveal immediate, as well as downstream transcriptional changes, both acute (20 minutes) and longer treatment (3 hours) with BDNF were used herein. […] Two independent Atlas arrays were performed using RNA from hippocampal cells treated for either 20 minutes or 3 hours of BDNF (50 ng/mL) and control sister cultures.
Of those genes selected, the regulation of 7% at 20 minutes and 40% at 3 hours were validated, although the magnitude of regulation was not always identical to that observed on the microarray. To focus on genes specifically involved in plasticity, a related neurotrophin, nerve growth factor (NGF), not inducing synaptic plasticity (Levine et al. (1996) supra), served as a control.
Time-mated pregnant rats were sacrificed by CO2 asphyxiation in accordance with institutional guidelines for care and use of animals. Fetuses were removed by caesarean section and transferred to a sterile petri dish with phosphate-buffered saline. Fetal hippocampi were dissected from surrounding brain tissue and meninges were completely removed. Low-density cultures of dissociated embryonic day 18 rat hippocampi (Sprague Dawley from Hilltop Laboratories, Scottsdale, Pa.) were prepared using standard methods (Thakker-Varia et al. (2001) supra). Briefly, pooled tissue from each litter was mechanically dissociated in nutrient medium containing 7.5% fetal bovine serum and plated on poly-D-lysine-coated culture dishes at 350,000 cells/dish. Cultures were maintained in serum-free medium (Thakker-Varia et al., 2001) for 10-14 days and contained pure neurons.
Total cellular RNA was prepared from neuronal cultures treated with either BDNF (50 ng/ml) or vehicle (water) for either 20 min or 3 hr by the guanidine isothiocyanate method and CsCl gradients (Thakker-Varia et al., 2001). DNAse-treated total RNA was prepared from neurotrophin or control hippocampal cultures and reverse transcribed using gene specific primers. Radioactively labeled probes were then hybridized to Atlas Arrays Rat 1.2 (Clontech, Palo Alto, Calif.) according to manufacturer's protocol. Arrays were performed in duplicate with an independent source of RNA. The hybridization pattern was analyzed on a phosphorimager and normalized to the global hybridization signal. Analysis was performed by Clontech using 1.7-fold change as criteria for significance. All transcriptional changes were confirmed by real time RT-PCR on independent samples (see below).
(§1) cDNA (100 μl) was prepared from 2 μg control or BDNF-treated RNA using random primers and Superscript II reverse transcriptase. 25 μl PCR reactions were then carried out using gene specific primers designed by Primer Express software and TaqMan MGB probes (Applied Biosystems 7000 Sequence Detection System, Foster City, Calif.). Duplicate wells were included for each condition and primer pair. Primers specific to the housekeeping gene, glyceraldehyde-3-phosphate dehydrogenase (GAPDH) were used as an internal control. Data analysis was performed according to the protocol provided by Applied Biosystems.

Hippocampal neurons = assay: Effect of inhibitors on BDNF-induced gene transcription (real time RT-PCR); type: cell-based, rat; conditions: for Effect of inhibitor on BDNF-induced VGF transcription / Effect of inhibitor on BDNF-induced Arc transcription / Effect of inhibitor on BDNF-induced EGR-1 transcription / Effect of inhibitor on BDNF-induced c-fos transcription: 30 min pre-incubation, K252a 200 nM, U0126 30 μM, PD98059 50 μM, U73122 10 μM, KN93 10 μM, LY294002 30 μM, H-89 1 μM, CC 1 μM; for Effect of inhibitor on BDNF-induced VGF transcription: BDNF 3 Hours; for Effect of inhibitor on BDNF-induced Arc transcription / Effect of inhibitor on BDNF-induced EGR-1 transcription / Effect of inhibitor on BDNF-induced c-fos transcription: BDNF 20 Minutes; for Effect on BDNF-induced transcription of the immediate early genes and VGF: BDNF 20 min for immediate early genes, 3 hr for VGF
Procedure: Signaling cascades involved in BDNF-mediated synaptic strengthening include mitogen-activated protein (MAP) kinase, phospholipase C-γ (PLC-γ) and phosphoinositide-3 kinase (PI3K) (Gottschalk et al. (1999) supra; Minichiello et al. (2002) supra; Ying et al. (2002); Mizuno et al. (2003) supra). To determine whether these transduction pathways are also required for BDNF transcriptional regulation of immediate early genes at 20 minutes and for VGF at 3 hours, pharmacological inhibitors were employed (Table 2).
Effect of inhibitors on BDNF-induced gene transcription. The regulation of BDNF-induced genes in the presence of inhibitors was determined by real time RT-PCR. Neurons were pre-incubated with inhibitors for 30 minutes prior to BDNF treatment (20 minutes for immediate early genes and 3 hours for VGF). […] “blocked” indicates significant reduction of transcription in the presence of inhibitor plus BDNF relative to BDNF alone (p<0.05, ANOVA, n=3).
Each experiment consisted of four groups: vehicle, inhibitor alone, BDNF, BDNF plus inhibitor. Data were normalized to GAPDH and expressed as a fold change of vehicle control.
as §1
Hippocampal neurons were pre-incubated with inhibitors for 30 min prior to BDNF treatment (20 min for IEGs and 3 hr for VGF). All inhibitors were purchased from Calbiochem, San Diego, Calif. K252a (200 nM), U0126 (30 μM), PD98059 (50 μM), U73122 (10 μM), KN93 (10 μM), LY294002 (30 μM), H-89 (1 μM) and chelerythrine chloride (CC, 1 μM). Pharmacological inhibitors were tested for efficacy by assaying downregulation of endogenous kinase phosphorylation in cell culture using Western blot (Y. Z. Du and C. F. Dreyfus, personal communication). Each experiment consisted of 4 groups: vehicle, inhibitor alone, BDNF, and BDNF plus inhibitor. Following inhibitor and BDNF treatments, RNA was isolated and subjected to real time RT-PCR as described above.

[1] = NGF as control neurotrophin, 20 minute section of Table 1
[2] = NGF as control neurotrophin, 3 hour section of Table 1

For “NGF: related neurotrophin, nerve growth factor, not inducing synaptic plasticity, served as a control”, the “Effect of NGF on transcription of BDNF-induced genes” value (hippocampal cells) was “did not affect transcription of most genes”, the “NGF effect on Arc transcription” value (hippocampal cells; [1]) was “UC” and the “NGF effect on EGR1 transcription” value (hippocampal cells; [1]) was “UC”. For the same compound, the “NGF effect on c-fos transcription” value (hippocampal cells; [1]) was “UC”, the “NGF effect on Arc transcription” value (hippocampal cells; [2]) was “UC” and the “NGF effect on CyclinD1 transcription” value (hippocampal cells; [2]) was “UC”. The “NGF effect on EGR1 transcription” value (hippocampal cells; [2]) was “UC”, the “NGF effect on Fra2 transcription” value (hippocampal cells; [2]) was “DOWN” and the “NGF effect on Kv + 1.1 transcription” value (hippocampal cells; [2]) was “UC”. For the same compound, the “NGF effect on NPY transcription” value (hippocampal cells; [2]) was “DOWN”, the “NGF effect on Na + ch transcription” value (hippocampal cells; [2]) was “UC” and the “NGF effect on PTP1B transcription” value (hippocampal cells; [2]) was “UC”. The “NGF effect on SSTR4 transcription” value (hippocampal cells; [2]) was “DOWN”, the “NGF effect on SgII transcription” value (hippocampal cells; [2]) was “UC” and the “NGF effect on UNC5H2 transcription” value (hippocampal cells; [2]) was “UC”. For the same compound, the “NGF effect on VGF transcription” value (hippocampal cells; [2]) was “UC” and the “NGF effect on c-fos transcription” value (hippocampal cells; [2]) was “UC”.
With `COc1cccc(-c2cc(=O)c3ccccc3o2)c1N` [PD98059] the “Effect of inhibitor on BDNF-induced VGF transcription” value (Hippocampal neurons) was “Blocked”, the “Effect of inhibitor on BDNF-induced Arc transcription” value (Hippocampal neurons) was “Blocked” and the “Effect of inhibitor on BDNF-induced EGR-1 transcription” value (Hippocampal neurons) was “Blocked”. The “Effect of inhibitor on BDNF-induced c-fos transcription” value (Hippocampal neurons) was “Blocked” and the “Effect on BDNF-induced transcription of the immediate early genes and VGF” value (“Effect on BDNF-induced transcription” for short) (Hippocampal neurons) was “blocked”.
For `COc1ccc2c(c1)CC[C@@H]1[C@@H]2CC[C@]2(C)[C@@H](NCCCCCCN3C(=O)C=CC3=O)CC[C@@H]12` [U73122], the “Effect of inhibitor on BDNF-induced VGF transcription” value (Hippocampal neurons) was “Blocked”, the “Effect of inhibitor on BDNF-induced Arc transcription” value (Hippocampal neurons) was “Blocked” and the “Effect of inhibitor on BDNF-induced c-fos transcription” value (Hippocampal neurons) was “Blocked”. For the same compound, the “Effect on BDNF-induced transcription” value (Hippocampal neurons) was “blocked”.
For `COC(=O)[C@@]1(O)C[C@H]2O[C@]1(C)n1c3ccccc3c3c4c(c5c6ccccc6n2c5c31)C(=O)NC4` [K252a], the “Effect of inhibitor on BDNF-induced VGF transcription” value (Hippocampal neurons) was “Blocked”, the “Effect of inhibitor on BDNF-induced Arc transcription” value (Hippocampal neurons) was “Blocked” and the “Effect of inhibitor on BDNF-induced EGR-1 transcription” value (Hippocampal neurons) was “Blocked”. The “Effect of inhibitor on BDNF-induced c-fos transcription” value (Hippocampal neurons) was “Blocked” and the “Effect on BDNF-induced transcription” value (Hippocampal neurons) was “blocked”.
With `N#CC(=C(/N)Sc1ccccc1N)/C(C#N)=C(\N)Sc1ccccc1N` [U0126] the “Effect of inhibitor on BDNF-induced VGF transcription” value (Hippocampal neurons) was “Blocked”, the “Effect of inhibitor on BDNF-induced Arc transcription” value (Hippocampal neurons) was “Blocked” and the “Effect of inhibitor on BDNF-induced EGR-1 transcription” value (Hippocampal neurons) was “Blocked”. For the same compound, the “Effect of inhibitor on BDNF-induced c-fos transcription” value (Hippocampal neurons) was “Blocked” and the “Effect on BDNF-induced transcription” value (Hippocampal neurons) was “blocked”.
For `COc1ccc(S(=O)(=O)N(CCO)c2ccccc2CN(C)C/C=C/c2ccc(Cl)cc2)cc1` [KN93], the “Effect of inhibitor on BDNF-induced VGF transcription” value (Hippocampal neurons) was “Blocked”, the “Effect of inhibitor on BDNF-induced Arc transcription” value (Hippocampal neurons) was “Blocked” and the “Effect of inhibitor on BDNF-induced EGR-1 transcription” value (Hippocampal neurons) was “Blocked”. The “Effect of inhibitor on BDNF-induced c-fos transcription” value (Hippocampal neurons) was “Blocked” and the “Effect on BDNF-induced transcription” value (Hippocampal neurons) was “blocked”.
`O=S(=O)(NCCNC/C=C/c1ccc(Br)cc1)c1cccc2cnccc12` [H-89] was tested, and the “Effect on BDNF-induced transcription” value (Hippocampal neurons) was “did not affect gene expression”.
